From patent US20040106626A1, “6-Membered unsaturated heterocyclic compounds useful for selective inhibition of the coagulation cascade” (Pharmacia Corporation, priority 2001, published 2004)

Experiments:
Type in all cases: biochemical
[1] = target: T1, Human thrombin (Homo sapiens, UniProt P00734); assay: Thrombin assay (chromogenic substrate); conditions: reported only as less than or greater than 30 uM; read-out: Thrombin (II) IC50
T1 construct: converts prothrombin (II) to thrombin (IIa); purchased Calbiochem, La Jolla, Calif
Procedure, shortened: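 Chromogenic assay with p-nitroaniline-releasing substrate; thrombin activity read as OD405 nm. Percent inhibition calculated from experimental versus control absorbance.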

[2] = target: T2, Human factor Xa (Homo sapiens, UniProt P00742); assay: Xa assay (chromogenic substrate S-2765); conditions: reported only as less than or greater than 30 uM; read-out: Factor Xa (II) IC50
T2 construct: purchased Enzyme Research Laboratories, South Bend Ind
T2 sequence (P00742 235-488 limits assumed): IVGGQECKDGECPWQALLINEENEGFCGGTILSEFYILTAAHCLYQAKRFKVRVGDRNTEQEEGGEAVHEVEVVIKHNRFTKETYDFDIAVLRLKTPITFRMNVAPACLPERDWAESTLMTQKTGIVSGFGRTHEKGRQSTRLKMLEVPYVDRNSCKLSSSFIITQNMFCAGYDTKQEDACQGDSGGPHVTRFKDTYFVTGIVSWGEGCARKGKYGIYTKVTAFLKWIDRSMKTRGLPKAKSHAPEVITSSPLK
T2 sequence (P00742 41-179 limits assumed): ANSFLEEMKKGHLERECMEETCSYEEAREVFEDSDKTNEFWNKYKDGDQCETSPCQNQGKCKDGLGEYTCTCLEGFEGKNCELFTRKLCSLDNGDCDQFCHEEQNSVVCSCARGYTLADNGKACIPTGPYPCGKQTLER
Procedure, shortened: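 Human factor Xa (0.3 nM) was incubated with inhibitor and 0.15 mM S-2765 in 50 mM Tris-HCl pH 8.0, 100 mM NaCl, 0.1% BSA. After 60 min at RT, p-nitroaniline release was read at 405 nm after background subtraction. Percent inhibition was calculated against uninhibited control.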

[3] = target: T3, recombinant soluble tissue factor and recombinant human factor VIIa (TF-VIIa) (Homo sapiens, UniProt P08709); assay: TF-VIIa assay (chromogenic substrate hydrolysis); conditions: reported only as less than or greater than 0.1 uM
T3 construct: conversion of coagulation factor VII to VIIa by factor Xa; purchased American Diagnostica, Greenwich CT; host or cells: soluble TF made in house in E. coli
T3 sequence (P08709 213-466 limits assumed): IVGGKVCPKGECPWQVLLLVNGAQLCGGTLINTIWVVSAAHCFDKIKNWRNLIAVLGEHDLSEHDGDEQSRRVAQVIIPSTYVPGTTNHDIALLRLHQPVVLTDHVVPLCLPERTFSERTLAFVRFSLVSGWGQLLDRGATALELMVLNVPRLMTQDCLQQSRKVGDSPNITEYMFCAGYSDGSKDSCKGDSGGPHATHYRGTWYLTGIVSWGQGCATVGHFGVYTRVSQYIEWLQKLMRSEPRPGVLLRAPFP
T3 sequence (P08709 61-212 limits assumed): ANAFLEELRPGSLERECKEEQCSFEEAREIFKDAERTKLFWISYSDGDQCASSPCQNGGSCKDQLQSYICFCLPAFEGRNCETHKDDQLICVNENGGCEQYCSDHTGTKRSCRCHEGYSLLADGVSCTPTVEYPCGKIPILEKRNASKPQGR
T3 sequence (P13726 33-251 partner limits assumed): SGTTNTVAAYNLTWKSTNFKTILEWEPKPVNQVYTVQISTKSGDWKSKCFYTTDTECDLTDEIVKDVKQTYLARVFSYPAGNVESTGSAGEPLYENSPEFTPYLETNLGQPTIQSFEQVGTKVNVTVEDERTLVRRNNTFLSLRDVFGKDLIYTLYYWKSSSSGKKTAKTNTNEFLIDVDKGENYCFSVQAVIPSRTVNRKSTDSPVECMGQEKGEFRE
Procedure, shortened: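 100 nM soluble tissue factor and 2 nM recombinant human factor VIIa added to 0.4 mM N-methylsulfonyl-D-phe-gly-arg-p-nitroaniline with inhibitor in 50 mM Tris-HCl pH 8.0, 5 mM CaCl2, 100 mM NaCl, 0.1% BSA. Percent inhibition from OD405 versus control.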

[4] = tested on: Normal human pooled plasma; assay: Prothrombin time (PT) clotting assay; conditions: concentration at which prothrombin time is prolonged by 2x normal, reported as less than or greater than 50 uM
Procedure, shortened: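 Normal human pooled plasma incubated with 100 uM compound or saline, then thromboplastin (human tissue factor) added and clotting time recorded in a coagulation machine. Compounds exceeding 3× normal PT (11.0 s) are titrated to find the concentration doubling PT.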

| SMILES | IC50 [1] [µM] | IC50 [2] [µM] | IC50 [3] [µM] | PT (Prothrombin time) 2xPT [4] [µM] |
| --- | --- | --- | --- | --- |
| CC(C)Nc1ncc(-c2cc(N)cc(O)c2)n(CC(=O)NCc2ccc(C(=N)N)c(O)c2)c1=O.O=C(O)C(F)(F)F [Example 181, 2-[6-(3-amino-5-hydroxyphenyl)-3-(isopropylamino)-2-oxopyrazin-1 (2H)-yl]-N-{4-[amino(imino)methyl]-3-hydroxybenzyl}acetamide] | > 30 | > 30 | > 0.1 | >50.0 |
| CC[C@@H](C)NC(=O)c1cc(N)cc(-c2cnc(NC(C)C)c(=O)n2CC(=O)NCc2ccc(C(=N)N)cc2OC)c1.O=C(O)C(F)(F)F.O=C(O)C(F)(F)F [Example 182, 3-amino-5-[1-[2-({4-[amino(imino)methyl]-2-methoxybenzyl}amino)-2-oxoethyl]-5-(isopropylamino)-6-oxo-1,6-dihydropyrazin-2-yl]-N-[(1R)-1-methylpropyl]benzamide] | < 30 | > 30 | < 0.1 | <50.0 |
| CC[C@@H](C)NC(=O)c1cc(N)cc(-c2cnc(NC(C)C)c(=O)n2CC(=O)NCc2c(F)c(O)c(C(=N)N)c(F)c2F)c1.Cl.Cl [Example 185, 3-[1-[2-({4-[amino(imino)methyl]-2,3,6-trifluoro-5-hydroxybenzyl}amino)-2-oxoethyl]-5-(isopropylamino)-6-oxo-1,6-dihydropyrazin-2-yl]-N-[(1R)-1-methylpropyl]-5-aminobenzamide Dihydrochloride] | > 30 | > 30 | < 0.1 | <50.0 |
| CC(C)Nc1ncc(-c2cc(N)cc(C(=O)NCc3ccc(F)c(O)c3)c2)n(CC(=O)NCc2ccc(C(=N)N)cc2)c1=O.O=C(O)C(F)(F)F [Example 186] | > 30 | > 30 | < 0.1 | <50.0 |
| CCCCOC(=O)c1cc(N)cc(-c2cnc(NC(C)C)c(=O)n2CC(=O)NCc2ccc(C(=N)N)cc2)c1.O=C(O)C(F)(F)F [Example 187] | > 30 | > 30 | < 0.1 | <50.0 |
| CC[C@H](C)NC(=O)c1cc(N)cc(-c2cnc(N[C@@H](C)C(C)C)c(=O)n2CC(=O)NCc2ccc(C(=N)N)cc2)c1.O=C(O)C(F)(F)F.O=C(O)C(F)(F)F [Example 190] | < 30 | > 30 | < 0.1 | <50.0 |
| CC[C@H](C)NC(=O)c1cc(N)cc(-c2cnc(N[C@@H](C)CC)c(=O)n2CC(=O)NCc2ccc(C(=N)N)cc2)c1.O=C(O)C(F)(F)F.O=C(O)C(F)(F)F [Example 191] | < 30 | > 30 | < 0.1 | <50.0 |
| CCCNc1ncc(-c2cc(N)cc(C(=O)N[C@@H](C)CC)c2)n(CC(=O)NCc2ccc(C(=N)N)cc2)c1=O.O=C(O)C(F)(F)F.O=C(O)C(F)(F)F [Example 192] | < 30 | > 30 | < 0.1 | <50.0 |
| CC[C@H](C)NC(=O)c1cc(N)cc(-c2cnc(NC(C)C)c(=O)n2CC(=O)NCc2c(O)cc(C(=N)N)cc2O)c1 [Example 193] | > 30 | > 30 | > 0.1 | <50.0 |
| CCNc1ncc(-c2cc(N)cc(C(=O)N[C@@H](C)CC)c2)n(CC(=O)NCc2ccc(C(=N)N)cc2)c1=O.O=C(O)C(F)(F)F.O=C(O)C(F)(F)F [Example 194] | > 30 | > 30 | < 0.1 | <50.0 |
| CC[C@H](C)NC(=O)c1cc(N)cc(-c2cnc(NC(C)C)c(=O)n2CC(=O)NCc2c(O)cc(C(=N)N)cc2OC)c1 [Example 195] | > 30 | > 30 | < 0.1 | <50.0 |
| CC[C@@H](C)NC(=O)c1cc(N)cc(-c2cnc(NC(C)C)c(=O)n2CC(=O)NCc2c(O)cc(C(=N)N)cc2OC)c1 [Example 198] | > 30 | > 30 | < 0.1 | <50.0 |
| CC[C@@H](C)NC(=O)c1cc(N)cc(-c2cnc(NC(C)C)c(=O)n2CC(=O)NCc2c(O)cc(C(=N)N)cc2O)c1 [Example 199] | > 30 | > 30 | < 0.1 | <50.0 |
| CC[C@H](C)NC(=O)c1cc(N)cc(-c2cnc(N[C@H](C)C(C)C)c(=O)n2CC(=O)NCc2ccc(C(=N)N)cc2)c1.O=C(O)C(F)(F)F.O=C(O)C(F)(F)F [Example 202] | < 30 | > 30 | < 0.1 | <50.0 |
| CC[C@@H](C)Nc1ncc(-c2cc(N)cc(C(=O)N[C@@H](C)CC)c2)n(CC(=O)NCc2ccc(C(=N)N)cc2)c1=O.O=C(O)C(F)(F)F.O=C(O)C(F)(F)F [Example 203] | < 30 | > 30 | < 0.1 | <50.0 |
| N=C(N)c1ccc(CNC(=O)Cn2c(-c3cc(N)cc(C(=O)O)c3)cnc(NC3CC3)c2=O)cc1.O=C(O)C(F)(F)F [Example 204, 3-amino-5-[1-[2-({4-[amino(imino)methyl]benzyl}amino)-2-oxoethyl]-5-(cyclopropylamino)-6-oxo-1,6-dihydropyrazin-2-yl]benzoic Acid] | > 30 | > 30 | < 0.1 | <50.0 |
| CCOC(=O)c1cc(N)cc(-c2cnc(NC3CC3)c(=O)n2CC(=O)NCc2ccc(C(=N)N)cc2)c1.O=C(O)C(F)(F)F [Example 207, Ethyl 3-amino-5-[1-[2-({4-[amino(imino)methyl]benzyl}amino)-2-oxoethyl]-5-(cyclopropylamino)-6-oxo-1,6-dihydropyrazin-2-yl]benzoate] | > 30 | > 30 | < 0.1 | <50.0 |
| CCC(CC)COc1cc(N)cc(-c2cnc(NC(C)C)c(=O)n2CC(=O)NCc2ccc(C(=N)N)cc2)c1.O=C(O)C(F)(F)F.O=C(O)C(F)(F)F [Example 209] | > 30 | > 30 | < 0.1 | 50 |
| CC(C)Nc1ncc(-c2cc(N)cc(OCCc3ccccc3)c2)n(CC(=O)NCc2ccc(C(=N)N)cc2)c1=O.O=C(O)C(F)(F)F.O=C(O)C(F)(F)F [Example 211] | > 30 | > 30 | < 0.1 | <50.0 |
| CC(C)Nc1ncc(-c2cc(N)cc(OC3CCCC3)c2)n(CC(=O)NCc2ccc(C(=N)N)cc2)c1=O.O=C(O)C(F)(F)F.O=C(O)C(F)(F)F [Example 212] | > 30 | > 30 | < 0.1 | <50.0 |
| CC(C)Nc1ncc(-c2cc(N)cc(OCC(C)(C)N(C)C)c2)n(CC(=O)NCc2ccc(C(=N)N)cc2)c1=O.O=C(O)C(F)(F)F.O=C(O)C(F)(F)F [Example 213] | > 30 | > 30 | < 0.1 | <50.0 |
| CC(C)CCOc1cc(N)cc(-c2cnc(NC(C)C)c(=O)n2CC(=O)NCc2ccc(C(=N)N)cc2)c1.O=C(O)C(F)(F)F.O=C(O)C(F)(F)F [Example 214] | > 30 | > 30 | < 0.1 | <50.0 |
| CC(C)Nc1ncc(-c2cc(N)cc(OCCC(C)(C)C)c2)n(CC(=O)NCc2ccc(C(=N)N)cc2)c1=O.O=C(O)C(F)(F)F.O=C(O)C(F)(F)F [Example 215] | > 30 | > 30 | < 0.1 | <50.0 |
| CC(C)Nc1ncc(-c2cc(N)cc(OC(C)C)c2)n(CC(=O)NCc2ccc(C(=N)N)cc2)c1=O.O=C(O)C(F)(F)F.O=C(O)C(F)(F)F [Example 216] | > 30 | > 30 | < 0.1 | <50.0 |
| CC(C)Nc1ncc(-c2cc(N)cc(OCC(C)(C)CN(C)C)c2)n(CC(=O)NCc2ccc(C(=N)N)cc2)c1=O.O=C(O)C(F)(F)F.O=C(O)C(F)(F)F [Example 217] | < 30 | > 30 | < 0.1 | <50.0 |
| CC(C)Nc1ncc(-c2cc(N)cc(OC3Cc4ccccc4C3)c2)n(CC(=O)NCc2ccc(C(=N)N)cc2)c1=O.O=C(O)C(F)(F)F.O=C(O)C(F)(F)F [Example 218] | > 30 | > 30 | < 0.1 | <50.0 |
| COCCOc1cc(N)cc(-c2cnc(NC(C)C)c(=O)n2CC(=O)NCc2ccc(C(=N)N)cc2)c1.O=C(O)C(F)(F)F.O=C(O)C(F)(F)F [Example 219] | > 30 | > 30 | < 0.1 | <50.0 |
| CC(C)Nc1ncc(-c2cc(N)cc(OCC3CCCC3)c2)n(CC(=O)NCc2ccc(C(=N)N)cc2)c1=O.O=C(O)C(F)(F)F.O=C(O)C(F)(F)F [Example 220] | > 30 | > 30 | < 0.1 | <50.0 |
